According to patent US20220169654A1, “New Organic Compounds” (Servier Pharmaceuticals LLC, priority 2020, published 2022):

How the values were obtained:
HCT116 MTAP+/+ = experiment: Inhibition of cellular proliferation, 4 days, Cell Titer Glo, HCT116 MTAP+/+; type: cell-based; details: Homo sapiens, HCT-116, 96 h, IC50 bin with Max Inh., read-out: 4 Day Relative Growth Inhibition (MTAP +/+)
Method in brief: (§1)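 Isogenic HCT116 pair differing only in MTAP status, plated 24 h before treatment with 10-point 3-fold dilutions; 4 days at 37° C./5% CO2. Cell Titer Glo luminescence, blank-subtracted and normalised to 0.2% DMSO control, gives percentage proliferation vs log molar concentration for IC50.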

HCT116 MTAP−/− = experiment: Inhibition of cellular proliferation, 4 days, Cell Titer Glo, HCT116 MTAP−/−; type: cell-based; details: Homo sapiens, HCT-116, 96 h, IC50 bin with Max Inh., read-out: 4 Day Relative Growth Inhibition (MTAP −/−)
Method in brief: as §1

[1] = test system: SAM in HCT116 human colon carcinoma cell line with MTAP gene deleted (MTAP −/−); experiment: Cellular assay of target engagement (SAM), LC-MS/MS, 72 hrs; type: cell-based; details: HCT-116, IC50 bin with Max Inh., read-out: Cell 72 h SAM Inhibition (MTAP −/−)
Method in brief: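 MTAP-deleted HCT116 cells plated 24 h, then given 10-point 3-fold dilutions for 72 hrs at 37° C. Intracellular SAM extracted in cold 80% methanol with 1M acetic acid and d3-SAM standard, quantified by LC-MS/MS (MRM m/z 399.2→250.1); IC50 derived.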

MAT2A homodimer = target: T1, MAT2A homodimer (Homo sapiens, UniProt P31153); experiment: MAT2A inhibition (biochemical, liberated phosphate, PiColorLock Gold); details: recombinant MAT2A homodimer; IC50 bin with Max Inh.; read-out: Enzyme Inhibition Bin
T1 construct: inferred from Ni sepharose purification with imidazole elution; made in house; host or cells: Sf9 insect cells, baculovirus (Bac to Bac, pFASTBAC1)
Method in brief: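 Baculovirus/Sf9-expressed, Ni-purified MAT2A (4 μg/mL) preincubated with compound 60 min at 25 °C in Tris pH 8.0/KCl/MgCl2 buffer. Reaction started with 500 μM ATP and 400 μM L-methionine (substrate-mix concentrations), run 60 min at 25 °C. Phosphate measured colorimetrically against a phosphate standard curve to give IC50.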

T1 sequence (P31153 whole entry): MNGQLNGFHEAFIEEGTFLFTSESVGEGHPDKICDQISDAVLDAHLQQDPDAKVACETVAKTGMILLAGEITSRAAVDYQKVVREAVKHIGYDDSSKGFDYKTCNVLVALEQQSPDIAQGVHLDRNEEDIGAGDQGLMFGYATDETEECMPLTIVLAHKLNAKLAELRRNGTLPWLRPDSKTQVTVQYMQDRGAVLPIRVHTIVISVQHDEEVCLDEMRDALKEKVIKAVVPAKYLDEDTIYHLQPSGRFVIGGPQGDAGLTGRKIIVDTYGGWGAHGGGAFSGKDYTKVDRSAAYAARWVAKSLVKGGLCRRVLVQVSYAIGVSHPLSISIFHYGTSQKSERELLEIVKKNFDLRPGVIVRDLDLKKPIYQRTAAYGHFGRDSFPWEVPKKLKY

C[C@H](O)c1cn(CC2CC2)c2c(-c3ccc(C4CC4)nc3)c(=O)n(-c3ccc4nn(C)cc4c3)nc12 [Example 250, (S)-5-(cyclopropylmethyl)-4-(6-cyclopropylpyridin-3-yl)-7-(1-hydroxyethyl)-2-(2-methyl-2H-indazol-5-yl)-2,5-dihydro-3H-pyrrolo[3,2-c]pyridazin-3-one]
IC50 (HCT116 MTAP+/+): > 1000 nM | IC50 (HCT116 MTAP−/−): < 100 nM | IC50 [1]: < 100 nM | IC50 (MAT2A homodimer): < 100 nM

Cn1cc2cc(-n3nc4c(C#N)c(Cl)n(CC5CC5)c4c(-c4ccc(C5CC5)nc4)c3=O)ccc2n1 [Example 251, 6-chloro-5-(cyclopropylmethyl)-4-(6-cyclopropylpyridin-3-yl)-2-(2-methyl-2H-indazol-5-yl)-3-oxo-3,5-dihydro-2H-pyrrolo[3,2-c]pyridazine-7-carbonitrile]
IC50 (HCT116 MTAP+/+): 100 to 1000 nM | IC50 (HCT116 MTAP−/−): < 100 nM | IC50 [1]: < 100 nM | IC50 (MAT2A homodimer): < 100 nM

Cn1cc2cc(-n3nc4c(C#N)cn(CC5CC5)c4c(-c4ccc([C@@H]5CC5(F)F)nc4)c3=O)ccc2n1 [Example 252, (S)-5-(cyclopropylmethyl)-4-(6-(2,2-difluorocyclopropyl)pyridin-3-yl)-2-(2-methyl-2H-indazol-5-yl)-3-oxo-3,5-dihydro-2H-pyrrolo[3,2-c]pyridazine-7-carbonitrile]
IC50 (HCT116 MTAP+/+): > 1000 nM | IC50 (HCT116 MTAP−/−): 100 to 1000 nM | IC50 [1]: 100 to 1000 nM | IC50 (MAT2A homodimer): < 100 nM

Cn1cc2cc(-n3nc4c(C#N)cn(CC5CC5)c4c(-c4ccc([C@H]5CC5(F)F)nc4)c3=O)ccc2n1 [Example 253, (R)-5-(cyclopropylmethyl)-4-(6-(2,2-difluorocyclopropyl)pyridin-3-yl)-2-(2-methyl-2H-indazol-5-yl)-3-oxo-3,5-dihydro-2H-pyrrolo[3,2-c]pyridazine-7-carbonitrile]
IC50 (HCT116 MTAP+/+): > 1000 nM | IC50 (HCT116 MTAP−/−): < 100 nM | IC50 [1]: 100 to 1000 nM | IC50 (MAT2A homodimer): < 100 nM

Cn1cc2cc(-n3nc4c(C#N)cn(CC5CC5)c4c(-c4ccc(C5(C)CC5)nc4)c3=O)ccc2n1 [Example 254, 5-(cyclopropylmethyl)-2-(2-methyl-2H-indazol-5-yl)-4-[6-(1-methylcyclopropyl)pyridin-3-yl]-3-oxo-2H,3H,5H-pyrrolo[3,2-c]pyridazine-7-carbonitrile]
IC50 (HCT116 MTAP+/+): 100 to 1000 nM | IC50 (HCT116 MTAP−/−): 100 to 1000 nM | IC50 [1]: 100 to 1000 nM | IC50 (MAT2A homodimer): < 100 nM

Cc1ccc(-c2c(=O)n(-c3ccc4nn(C)cc4c3)nc3c(CO)cn(CC4CC4)c23)cn1 [Example 255, 5-(cyclopropylmethyl)-7-(hydroxymethyl)-2-(2-methyl-2H-indazol-5-yl)-4-(6-methylpyridin-3-yl)-2,5-dihydro-3H-pyrrolo[3,2-c]pyridazin-3-one]
IC50 (HCT116 MTAP+/+): 100 to 1000 nM | IC50 (HCT116 MTAP−/−): < 100 nM | IC50 [1]: < 100 nM | IC50 (MAT2A homodimer): < 100 nM

Cn1cc2cc(-n3nc4c(C#N)cn(CC5CC5)c4c(-c4ccc(C5(O)CC5)nc4)c3=O)ccc2n1 [Example 256, 5-(cyclopropylmethyl)-4-(6-(1-hydroxycyclopropyl)pyridin-3-yl)-2-(2-methyl-2H-indazol-5-yl)-3-oxo-3,5-dihydro-2H-pyrrolo[3,2-c]pyridazine-7-carbonitrile]
IC50 (HCT116 MTAP+/+): > 1000 nM | IC50 (HCT116 MTAP−/−): 100 to 1000 nM | IC50 [1]: 100 to 1000 nM | IC50 (MAT2A homodimer): < 100 nM

C=C(CF)c1ccc(-c2c(=O)n(-c3ccc4nn(C)cc4c3)nc3c(C#N)cn(CC4CC4)c23)cn1 [Example 257, 5-(cyclopropylmethyl)-4-(6-(3-fluoroprop-1-en-2-yl)pyridin-3-yl)-2-(2-methyl-2H-indazol-5-yl)-3-oxo-3,5-dihydro-2H-pyrrolo[3,2-c]pyridazine-7-carbonitrile]
IC50 (HCT116 MTAP+/+): > 1000 nM | IC50 (HCT116 MTAP−/−): 100 to 1000 nM | IC50 [1]: 100 to 1000 nM | IC50 (MAT2A homodimer): < 100 nM

Cc1ccc(-c2c(=O)n(-c3ccc4nn(C)cc4c3)nc3c(C(F)(F)F)cn(CC4CC4)c23)cn1 [Example 258, 5-(cyclopropylmethyl)-2-(2-methyl-2H-indazol-5-yl)-4-(6-methylpyridin-3-yl)-7-(trifluoromethyl)-2,5-dihydro-3H-pyrrolo[3,2-c]pyridazin-3-one]
IC50 (HCT116 MTAP+/+): 100 to 1000 nM | IC50 (HCT116 MTAP−/−): < 100 nM | IC50 [1]: < 100 nM | IC50 (MAT2A homodimer): < 100 nM

Cn1cc2cc(-n3nc4c(CC#N)cn(CC5CC5)c4c(-c4ccc(C5CC5)nc4)c3=O)ccc2n1 [Example 259, 2-(5-(cyclopropylmethyl)-4-(6-cyclopropylpyridin-3-yl)-2-(2-methyl-2H-indazol-5-yl)-3-oxo-3,5-dihydro-2H-pyrrolo[3,2-c]pyridazin-7-yl)acetonitrile]
IC50 (HCT116 MTAP+/+): > 1000 nM | IC50 (HCT116 MTAP−/−): < 100 nM | IC50 [1]: < 100 nM | IC50 (MAT2A homodimer): < 100 nM

Cn1cc2cc(-n3nc4c(c(-c5ccc(C6CC6)nc5)c3=O)N(CC3CC3)CC4(C)C)ccc2n1 [Example 260, 5-(cyclopropylmethyl)-4-(6-cyclopropylpyridin-3-yl)-7,7-dimethyl-2-(2-methyl-2H-indazol-5-yl)-2,5,6,7-tetrahydro-3H-pyrrolo[3,2-c]pyridazin-3-one]
IC50 (HCT116 MTAP+/+): > 1000 nM | IC50 (HCT116 MTAP−/−): > 1000 nM | IC50 [1]: > 1000 nM | IC50 (MAT2A homodimer): 1000 to 10000 nM

Cc1cc2nn(-c3ccc4nn(C)cc4c3)c(=O)c(-c3ccc(C4CC4)nc3)c2n1CC1CC1 [Example 263, 5-(cyclopropylmethyl)-4-(6-cyclopropylpyridin-3-yl)-6-methyl-2-(2-methyl-2H-indazol-5-yl)-2,5-dihydro-3H-pyrrolo[3,2-c]pyridazin-3-one]
IC50 (HCT116 MTAP+/+): > 1000 nM | IC50 (HCT116 MTAP−/−): > 1000 nM | IC50 [1]: < 100 nM | IC50 (MAT2A homodimer): < 1000 nM

Cc1c(C#N)c2nn(-c3ccc4nn(C)cc4c3)c(=O)c(-c3ccc(OC(F)F)cc3)c2n1CC1CC1 [Example 264, 5-(cyclopropylmethyl)-4-(4-(difluoromethoxy)phenyl)-6-methyl-2-(2-methyl-2H-indazol-5-yl)-3-oxo-3,5-dihydro-2H-pyrrolo[3,2-c]pyridazine-7-carbonitrile]
IC50 (HCT116 MTAP+/+): > 1000 nM | IC50 (HCT116 MTAP−/−): < 100 nM | IC50 [1]: < 100 nM | IC50 (MAT2A homodimer): < 100 nM

CNCc1cn(CC2CC2)c2c(-c3ccc(C4CC4)nc3)c(=O)n(-c3ccc4nn(C)cc4c3)nc12 [Example 267, 5-(cyclopropylmethyl)-4-(6-cyclopropylpyridin-3-yl)-2-(2-methyl-2H-indazol-5-yl)-7-((methylamino)methyl)-2,5-dihydro-3H-pyrrolo[3,2-c]pyridazin-3-one]
IC50 (HCT116 MTAP+/+): > 1000 nM | IC50 (HCT116 MTAP−/−): 100 to 1000 nM | IC50 [1]: 100 to 1000 nM | IC50 (MAT2A homodimer): < 100 nM

Cn1cc2cc(-n3nc4c(C#N)cn(C[C@@H]5CC5(F)F)c4c(-c4ccc(C5CC5)nc4)c3=O)ccc2n1 [Example 268, (S)-4-(6-cyclopropylpyridin-3-yl)-5-((2,2-difluorocyclopropyl)methyl)-2-(2-methyl-2H-indazol-5-yl)-3-oxo-3,5-dihydro-2H-pyrrolo[3,2-c]pyridazine-7-carbonitrile]
IC50 (HCT116 MTAP+/+): > 1000 nM | IC50 (HCT116 MTAP−/−): < 100 nM | IC50 [1]: < 100 nM | IC50 (MAT2A homodimer): < 100 nM

Cn1cc2cc(-n3nc4c(C#N)cn(C[C@H]5CC5(F)F)c4c(-c4ccc(C5CC5)nc4)c3=O)ccc2n1 [Example 269, (R)-4-(6-cyclopropylpyridin-3-yl)-5-((2,2-difluorocyclopropyl)methyl)-2-(2-methyl-2H-indazol-5-yl)-3-oxo-3,5-dihydro-2H-pyrrolo[3,2-c]pyridazine-7-carbonitrile]
IC50 (HCT116 MTAP+/+): > 1000 nM | IC50 (HCT116 MTAP−/−): > 1000 nM | IC50 [1]: < 100 nM | IC50 (MAT2A homodimer): < 100 nM

[2H]C([2H])([2H])n1cc2cc(-n3nc4c(C#N)cn(CC5CC5)c4c(-c4ccc(C5CC5)nc4)c3=O)ccc2n1 [Example 270, 5-(cyclopropylmethyl)-4-(6-cyclopropylpyridin-3-yl)-2-(2-(methyl-d3)-2H-indazol-5-yl)-3-oxo-3,5-dihydro-2H-pyrrolo[3,2-c]pyridazine-7-carbonitrile]
IC50 (HCT116 MTAP+/+): 100 to 1000 nM | IC50 (HCT116 MTAP−/−): < 100 nM | IC50 [1]: < 100 nM | IC50 (MAT2A homodimer): < 100 nM

Cn1cc2cc(-n3nc4[nH]cc(CC5CC5)c4c(-c4ccc(OC(F)F)cc4)c3=O)ccc2n1 [Example 271, 5-(cyclopropylmethyl)-4-(4-(difluoromethoxy)phenyl)-2-(2-methyl-2H-indazol-5-yl)-2,7-dihydro-3H-pyrrolo[2,3-c]pyridazin-3-one]
IC50 (HCT116 MTAP+/+): 100 to 1000 nM | IC50 (HCT116 MTAP−/−): < 100 nM | IC50 [1]: < 100 nM | IC50 (MAT2A homodimer): < 100 nM
